Laboratory results: patent US20260199301A1, “PHENYL-PYRAZOLO[3,4-B]PYRIDINE-4-CARBOXYLIC ACID DERIVATES FOR USE AS 5-ALPHA REDUCTASE ANTAGONISTS IN METHODS OF TREATMENT” (UNIVERSITY OF CAPE TOWN, priority 2022, published 2026)
In brackets after ≈: the same amount, converted by molar mass. Where two headings read alike, the source gives them in different places. Values belong to the molecule of their own block, whether it stands above or below them.

How the values were obtained:
in vitro [1] = conditions: CD1, mouse, hepatocytes
Method: (§7) Hepatocyte stability was performed using a 5-point assay design using cryopreserved hepatocytes in suspension. Briefly, the compounds (1 μM) were incubated at 37° C. in human (Hepatosure 100-donor pool, XenoTech LLC) and mouse (Cryostax mouse CD1, XenoTech LLC) hepatocytes (500,000 cells/ml) for various timepoints over 120 min. Reactions were quenched by adding ice-cold acetonitrile containing internal standard. The samples were then centrifuged, and the samples analysed by LC-MS/MS (Agilent Rapid Resolution HPLC, AB SCIEX 4500 MS) for the disappearance of parent compound. Half-life, clearance and hepatic excretion ratios were determined using standard equations.
(§8) The CLint,app value can be used to calculate a predicted in vivo value by factoring in scaling factors (number of hepatocytes per gram of liver and grams of liver per kg body weight) and binding (measured plasma protein binding and estimated incubational binding). The predicted mouse and human clearance values represent the total hepatic clearances that would be expected for these compounds in vivo.

SRD5A1 gene = test: qPCR relative expression of SRD5A1 gene in DU-145 cell line; type: cell-based, human; conditions: DU-145, 24 hours at IC50 values
Method: (§1) The DU-145 cell lines and HEK293 cell lines were grown to 70% confluence in DMEM supplemented with 10% (v/v) fetal bovine serum and 1% antibiotic (100 μg/mL of streptomycin and 100 unit/mL of penicillin (P/S) at 37° C. in a 5% CO2 environment.
(§2) The androgen-independent DU-145 cell line, treated with finasteride (0.9 nM), dutasteride (1.6 μM), and Bsy1 (0.0054 nM) for 24 hours, was measured for their SRD5A gene regulation using qPCR. […] The relative expression of the SRD5A2 gene was reduced by approximately 3-fold for finasteride and dutasteride and 2-fold for Bsy1 (FIG. 5A). However, it should be noted that the finasteride concentrations were 100-fold, and dutasteride 1000-fold, higher than the concentration of Bsy1. […] The level of inhibitory action against SRD5A1 and SRD5A2 is surprising as it is expected that that the phenyl-pyrazolo[3,4-b]pyridine-4-carboxylic acid Bsy1 and its derivates, as described herein, will show similar inhibition results. […] Experiments were repeated three times.]
(§3) A two-way ANOVA statistical analysis was conducted to compare the gene suppression levels of each drug treatment against the control (untreated), using Dunnett's correction test (DCT) (FIG. 5B). [FIG. 5B—two-way ANOVA Dunnett test of the Control vs Treatment at IC50 values. Comparison tests of control vs. drug treatment at p<0.05 for: SRD5A1 (ns); SRD5A2**; SRD5A3 (ns). […]

[2] = system: HEK293 and DU-145 cell lines; test: Selectivity index from ratio of IC50 values, normal cells vs cancer cells; type: cell-based, human; conditions: normal cells (HEK293) vs cancer cells (DU-145)
Method: The selectivity index, indicating the selectivity of a given compound between normal cells and cancer cells, was calculated from the ratio of their respective IC50 values (Equation 1).

SRD5A2 = biological target: T1, SRD5A2 (Homo sapiens, UniProt P31213); conditions: cited from earlier work
T1 sequence (P31213 1-254): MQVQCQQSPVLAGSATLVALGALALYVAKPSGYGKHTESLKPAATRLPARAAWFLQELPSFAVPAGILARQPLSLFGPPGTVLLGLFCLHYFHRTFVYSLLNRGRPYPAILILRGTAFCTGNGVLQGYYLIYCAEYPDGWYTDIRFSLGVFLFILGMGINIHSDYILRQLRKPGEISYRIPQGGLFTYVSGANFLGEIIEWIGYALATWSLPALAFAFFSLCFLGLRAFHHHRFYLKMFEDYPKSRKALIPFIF

HEK293 cell line = test: MTT assay IC50 in HEK293 cell line; type: cell-based, human
Method: as §1
(§4) The half maximal inhibitory concentration (IC50) was established in the selected cell lines. The cell lines previously identified as having high endogenous expression levels of SRD5A2 were used to determine the in-vitro cytotoxic effects of Bsy1 on DU-145 and HEK293. The results were compared with the comparative compounds finasteride and dutasteride. The cytotoxic concentration and cell viability of these drugs were evaluated using the 3-(4,5-dimethylthiazol-2-yl)-2,5-diphenyl-2H-tetrazolium bromide (“MTT”) assay, using the comparative compounds as positive controls.
(§5) The study seeded cells at 1×10^4 cells/well density using a 96-well plate and incubated them for 24 hours to allow the cells to attach in a 5% CO2 incubator at 37° C. Different serial concentrations of the compounds treated the cells, 1% (v/v) DMSO/methanol in DMEM treated the control cells, and DMEM only served as a blank. Cells were stained with 100 μl of a 0.5 mg/ml MTT solution and incubated in a 5% CO2 atmosphere at 37° C. incubators for 4 hours. The medium was aspirated, and 100 μl of absolute ethanol was added to each well. The formation of […] measured all growth and chemosensitivity. Absorbance was detected spectrophotometrically at 570 nm using a reference wavelength of 630 nm. The experiments were performed in triplicate.
(§6) The dose-response from the non-linear curve (inhibitor vs normalised response—variable slope curve), plotted using GraphPad Prism V 9.3.1, was used to determine the IC50 values of these cells.
However, the IC50 values for Bsy1 in the HEK293 cell lines were higher than in the DU-145 cells.

DU-145 cell line = test: MTT assay IC50 in DU-145 cell line; type: cell-based, human; conditions: called antagonist activity against SRD5A2
Method: as §1, §4, §5, §6
The study determined the ICs values using a non-linear curve fit with a hyperbola model (FIG. 3).

SRD5A2 gene [3] = test: qPCR relative expression of SRD5A2 gene in HEK293 cell line; type: cell-based, human; conditions: for relative expression of the SRD5A2 gene increased: HEK293, 24 hours at IC50 (finasteride 1.34 nM, dutasteride 1.29 μM, Bsy1 0.02 nM)
Method: as §1
Experiments were repeated three times.]
The two-way ANOVA compared the expression levels of the SRD5A genes and between the different drugs in HEK293 cell lines (FIG. 6 B). […] Data were expressed for each bar as means±standard error of mean ****P≤0.0001 from control.

[4] = Solubility, miniaturised shake-flask method; type: physicochemical; conditions: aqueous buffer, thermodynamic from solid, pH 7.4 as headed, phosphate buffer, 25° C.
Method: […] Briefly, 4 μl of a 10 mM stock in DMSO was added to a 96-well plate and evaporated using a GeneVac system. […] At the end of this incubation, the samples were centrifuged at 3500 g for 15 min then transferred to an analysis plate. A calibration curve in DMSO for each sample between 10-220 μM was prepared and included in the analysis plate. Analysis was then performed by LC-MS (Agilent Rapid Resolution HPLC, AB SCIEX 4500 MS) and solubility of each sample determined from the corresponding calibration curve.

[5] = 1 μM
Method: as §7, §8

SRD5A2 gene [6] = test: qPCR relative expression of SRD5A2 gene in DU-145 cell line; type: cell-based, human; conditions: DU-145, 24 hours at IC50 (finasteride 0.9 nM, dutasteride 1.6 μM, Bsy1 0.0054 nM)
Method: as §1, §2, §3

in vitro [7] = conditions: human, hepatocytes
Method: as §7, §8

[8] = CD1, mouse, 1 μM
Method: as §7, §8

[9] = Plasma protein binding by ultracentrifugation; type: in vitro ADME; conditions: mouse, read-out: Mouse PPB (converted)
[10] = Human hepatocyte stability
Method: as §7, §8

[11] = Mouse hepatocyte stability
Method: as §7, §8

[12] = Homo sapiens, HEK293, HEK293 cell line, called antagonist activity against SRD5A2, read-out: IC50
[13] = Homo sapiens, DU-145, DU-145 cell line

Compound: CC(C)(C)NC(=O)[C@H]1CC[C@H]2[C@@H]3CC[C@H]4NC(=O)C=C[C@]4(C)[C@H]3CC[C@]12C [Finasteride]
hepatocyte CLint at 1 μM (in vitro [1]): 13.8 µL/min/1e6 cells
SRD5A1 suppression (SRD5A1 gene): comparable
SELECTIVITY INDEX [2]: 1.49
selectivity for SRD5A2 than SRD5A1 (SRD5A2): 100 fold
IC50 (HEK293 cell line; HEK293 cell line, called antagonist activity against SRD5A2, read-out: IC50): 1.24 ± 1.43 nM
IC50 (HEK293 cell line; [12]): 1.34 nM
IC50 (DU-145 cell line; DU-145 cell line): 0.72 ± 1.09 nM
IC50 (DU-145 cell line; [13]): 0.9 nM
relative expression of the SRD5A2 gene increased (SRD5A2 gene [3]): ~0.75 fold
SRD5A2 expression, drug treatment vs untreated, two-way ANOVA Dunnett test (SRD5A2 gene [3]; HEK293, IC50 values): ns
solubility at 24 h [4]: > 200 µM
Predicted human Clearance [5]: 3.3 mL/min/kg
relative expression of the SRD5A2 gene reduced (SRD5A2 gene [6]): approximately 3 fold
hepatocyte CLint at 1 μM (in vitro [7]): 4.5 µL/min/1e6 cells
Predicted mouse Clearance [8]: 10.6 mL/min/kg
fraction unbound at 4 h, 10 μM [9]: 0.27

solubility at 24 h [4]: 120 µM (≈ 39.3 µg/mL)
Compound: COc1ccc(N2N=C(C3CC3)C3C(C(=O)O)=CC(=O)NC32)cc1 (centres unmarked) [Bsy6, 3-cyclopropyl-1-(4-methoxyphenyl)-6-oxo-3a,6,7,7a-tetrahydro-1H-pyrazolo[3,4-b]pyridine-4-carboxylic acid]

solubility at 24 h [4]: 190 µM (≈ 63 µg/mL)
Compound: O=C1C=C(C(=O)O)C2C(C3CC3)=NN(c3ccc(Cl)cc3)C2N1 (centres unmarked) [Bsy3, 1-(4-chlorophenyl)-3-cyclopropyl-6-oxo-3a,6,7,7a-tetrahydro-1H-pyrazolo[3,4-b]pyridine-4-carboxylic acid]

solubility at 24 h [4]: 195 µM (≈ 73.4 µg/mL)
Compound: O=C1C=C(C(=O)O)C2C(C3CC3)=NN(c3ccc(Br)cc3)C2N1 (centres unmarked) [Bsy2, 1-(4-bromophenyl)-3-cyclopropyl-6-oxo-3a,6,7,7a-tetrahydro-1H-pyrazolo[3,4-b]pyridine-4-carboxylic acid]

Compound: C[C@]12C=CC(=O)N[C@@H]1CC[C@@H]1[C@@H]2CC[C@]2(C)[C@@H](C(=O)Nc3cc(C(F)(F)F)ccc3C(F)(F)F)CC[C@@H]12 [Dutasteride]
SELECTIVITY INDEX [2]: 0.81
IC50 (HEK293 cell line; HEK293 cell line, called antagonist activity against SRD5A2): 1210 ± 1370 nM
IC50 (HEK293 cell line; Homo sapiens, HEK293, HEK293 cell line, called antagonist activity against SRD5A2): 1290 nM
IC50 (DU-145 cell line; DU-145 cell line): 1670 ± 1850 nM
IC50 (DU-145 cell line; [13]): 1600 nM
relative expression of the SRD5A2 gene increased (SRD5A2 gene [3]): approximately 2 fold
relative expression of the SRD5A2 gene reduced (SRD5A2 gene [6]): approximately 3 fold

solubility at 24 h [4]: > 200 µM
Compound: O=C1C=C(C(=O)O)C2C(C3CC3)=NN(c3ccccc3F)C2N1 (centres unmarked) [Bsy4, 3-cyclopropyl-1-(2-fluorophenyl)-6-oxo-3a,6,7,7a-tetrahydro-1H-pyrazolo[3,4-b]pyridine-4-carboxylic acid]

Compound: O=C1C=C(C(=O)O)C2C(C3CC3)=NN(c3ccc(F)cc3)C2N1 (centres unmarked) [Bsy1, 3-cyclopropyl-1-(4-fluorophenyl)-6-oxo-3a,6,7,7a-tetrahydro-1H-pyrazolo[3,4-b]pyridine-4-carboxylic acid]
SRD5A1 suppression (SRD5A1 gene): comparable
hepatocyte CLint at 1 μM ([10]; human, cryopreserved hepatocytes in suspension): 4.1 µL/min/1e6 cells
hepatic clearance classification ([10]; human, predicted clearance below 30% of liver blood flow 20.7 ml/min/kg): low hepatic clearance
Predicted human Clearance ([10]; scaled from human hepatocyte CLint,app): 6.7 mL/min/kg
SELECTIVITY INDEX [2]: 3.7
IC50 (HEK293 cell line; [12]): 0.02 nM
IC50 (DU-145 cell line; DU-145 cell line): 5400 nM
relative expression of the SRD5A2 gene increased (SRD5A2 gene [3]): approximately 2 fold
hepatocyte CLint at 1 μM ([11]; CD1, mouse, cryopreserved hepatocytes in suspension): < 6.4 µL/min/1e6 cells
hepatic clearance classification ([11]; mouse, predicted clearance below 30% of liver blood flow 126 ml/min/kg): low hepatic clearance
Predicted mouse Clearance ([11]; scaled from mouse hepatocyte CLint,app): <13.8 mL/min/kg
solubility at 24 h [4]: > 200 µM
fraction unbound at 4 h, 10 μM [9]: 0.95

solubility at 24 h [4]: > 200 µM
Compound: O=C1C=C(C(=O)O)C2C(C3CC3)=NN(c3cccc(F)c3)C2N1 (centres unmarked) [Bsy5, 3-cyclopropyl-1-(3-fluorophenyl)-6-oxo-3a,6,7,7a-tetrahydro-1H-pyrazolo[3,4-b]pyridine-4-carboxylic acid]
